Source: patent publication US20050215635A1, “Diarylheptanoid compounds and uses thereof” (priority 2004, published 2005)

Experiments:
[1] = system: TNF-α production from human PBMCs; experiment: TNF-α ELISA in supernatants of LPS-treated human PBMCs; format: cell-based; settings: 18 hrs
Method: The PBMCs were separated from peripheral blood of normal healthy human volunteers. […] Supernatant was harvested after 18 hrs and stored at −70° C. until tested. The quantity of IL-1β and TNF-α present in supernatants was estimated by ELISA (R&D systems, MN, USA) following manufacturer's instruction. A standard curve was obtained by plotting known concentrations of recombinant human IL-1β and TNF-α vs absorbance at 450 nm.
Each data point represents mean+standard deviation (SD) of 3 replicates.

COX-2 mRNA expression = experiment: Relative RT-PCR of COX-2 mRNA expression in RAW 264.7 cells; format: cell-based, mouse; settings: RAW 264.7, 12 hrs
Method: (§1) FIG. 4A and B: Effect of HMP on mRNA expression of iNOS and COX-2. Fig. A, RAW 264.7 cells were incubated in the presence of LPS (0.5 μg/ml) with or without HMP (12.5, 25 μM) for 12 hrs. Total RNA isolated from RAW 264.7 cells after 12 hrs of treatments with LPS alone or with various concentration of HMP was reverse transcribed to make cDNA and 2 μl (for iNOS) or 1 μl (for COX-2) of cDNA was amplified using gene specific primer (Ambion Inc). Ten μl of each PCR reaction was resolved in 2% agarose gel. Lane 1, control; 2. LPS (0.5 μg/ml); 3, LPS+HMP (12.5 μM) and Lane, 4 LPS+HMP (25 μM). Fig. B, Histogram showing densitometric analysis of iNOS and COX-2 mRNA expression. […] This experiment was repeated 3 times separately with similar observation.
(§2) The RAW 264.7 cells were cultured (10^6/well) in 6 well plate for 24 hrs and then medium was replaced by fresh medium and different concentrations of HMP either alone or in combination of LPS was added and further cultured for 12 hrs. […] Linear range of amplification of iNOS and COX-2 cDNA (2 μl for COX-2 and 1μl for iNOS of RT reaction mixture) was determined using gene specific primers from Ambion Inc (TX, USA), following manufacturer's instruction. The optimum amount of 18S primer and competitor for iNOS and COX-2 gene were also determined as per manufacturer's instruction. […]

COX-2 protein expression = experiment: Western blotting of COX-2 protein expression in RAW 264.7 cells; format: cell-based, mouse; settings: HMP 12.5 and 25 μM + LPS (0.5 μg/ml), RAW 264.7, 18 hrs
Method: FIG. 3. Inhibition of LPS induced iNOS and COX-2 protein expression by HMP. RAW 264.7 cells were treated with various concentrations of HMP and/or LPS (0.5 μg/ml) for 18 h. Total-cell lysate (40 μg) was resolved in 8-10% SDS-PAGE then transferred to PVDF membrane and detected with specific antibodies as described in Section 6. This experiment was repeated 4 times with similar observations. Lane-1, Control (without any treatment); 2, LPS (0.5 μg/ml); 3, LPS and HMP 25 μM; 4, LPS and HMP-12.5 μM.
At indicated time points, cells were rapidly washed with ice-cold PBS and solubilized in cold lysis buffer containing 10 mM Tris-base, 5 mM EDTA, 50 mM NaCl, 1% Triton X-100, 5 mM phenylmethylsulfonyl fluoride (PMSF), 2 mM sodium orthovanadate, 10 μg/ml leupeptin, 25 μg/ml aprotinin, 1 mM sodium pyrophosphate, and 20% glycerol. […]
Equal amount of protein (40 μg) from each sample was loaded on SDS-polyacrylamide electrophoresis gel (8 and 10% separating gels for iNOS and p42/44^MAPK, respectively) and resolved for 1.5 h at 120 V in buffer containing 95 mM Tris-HCl, 960 mM glycine, and 0.5% SDS. […] Specific bands were detected by enhanced chemiluminescence's detection system (Amersham-Pharmacia biotech, NJ, USA) and the membrane was exposed to X-ray film. […]

iNOS mRNA expression = experiment: Relative RT-PCR of iNOS mRNA expression in RAW 264.7 cells; format: cell-based, mouse; settings: RAW 264.7, 12 hrs
Method: as §1, §2

With `COc1cc(CC/C=C/C(=O)CCc2ccccc2)ccc1O` [AO-4, 7-(4″-hydroxy-3″-methoxyphenyl)-1-phenyl-hept-4-en-3-one] the “TNF-α” value ([1]; HMP 6.25 μM + LPS (10 ng/ml)) was 342.24 ± 11.50 pg/mL, the “TNF-α” value ([1]; HMP 6.25 μM alone, detection limit 15.62 pg/ml) was less than 15.62 pg/mL and the “TNF-α” value ([1]; HMP 12.5 μM + LPS (10 ng/ml)) was 298.49 ± 5.47 pg/mL. The “TNF-α” value ([1]; HMP 12.5 μM alone, detection limit 15.62 pg/ml) was less than 15.62 pg/mL, the “TNF-α” value ([1]; HMP 25 μM + LPS (10 ng/ml)) was 165.38 ± 8.48 pg/mL and the “TNF-α” value ([1]; HMP 25 μM alone, detection limit 15.62 pg/ml) was less than 15.62 pg/mL. For the same molecule, the “inhibition of LPS induced TNF-α (in words)” value ([1]; HMP 6.25-25 μM + LPS) was “only at 25 μM concentration”, the “inhibition of LPS induced COX-2 mRNA expression (densitometry, ratio to 18 S RNA)” value (COX-2 mRNA expression; HMP 12.5 μM + LPS (0.5 μg/ml)) was 27.3% and the “inhibition of LPS induced COX-2 mRNA expression (densitometry, ratio to 18 S RNA)” value (COX-2 mRNA expression; HMP 25 μM + LPS (0.5 μg/ml)) was 54.6%. The “LPS induced COX-2 protein expression (Western blot, in words)” value (COX-2 protein expression) was “markedly inhibited”, the “inhibition of LPS induced iNOS mRNA expression (densitometry, ratio to 18 S RNA)” value (iNOS mRNA expression; HMP 12.5 μM + LPS (0.5 μg/ml)) was 47.8% and the “inhibition of LPS induced iNOS mRNA expression (densitometry, ratio to 18 S RNA)” value (iNOS mRNA expression; HMP 25 μM + LPS (0.5 μg/ml)) was 75.5%.
